Source: paper PMC6269066, “A New Synthetic Route to Original Sulfonamide Derivatives in 2-Trichloromethylquinazoline Series: A Structure-Activity Relationship Study of Antiplasmodial Activity” (Molecules, 2012)
Read-outs that look alike come from different tables or passages of the source.

Experiments:
[1] = test system: multi-resistant K1 Plasmodium falciparum strain; experiment: in vitro antiplasmodial activity, K1 strain (Table 1); format: cell-based
[2] = cytotoxicity toward the human HepG2 cell line (CC50); conditions: HepG2 cells
[3] = test system: multi-resistant W2 or K1 Plasmodium falciparum strains; design: method as in PMID 17981462, PMID 19482476, PMID 19926173, PMID 21741131, PMID 21852132; conditions: previously synthesized series (Table 2, entries 1-4); W2 or K1 strain; read-out: IC50 P. falc.; cited from earlier work
human HepG2 cell line [4] = test system: human HepG2 cell line; design: method as in PMID 17981462, PMID 19482476, PMID 19926173, PMID 21741131, PMID 21852132; conditions: previously synthesized series (Table 2, entries 1-4); cited from earlier work
[5] = test system: multi-resistant W2 or K1 Plasmodium falciparum strains; experiment: in vitro antiplasmodial activity, 2-trichloromethylquinazoline series (Table 2); format: cell-based; conditions: for IC50: Plasmodium falciparum, read-out: IC50 P. falc.
in vitro = conditions: human
human HepG2 cell line [6] = test system: human HepG2 cell line
[7] = Plasmodium falciparum, P. falciparum K1 strain, highest tested concentration 10 µM, read-out: IC50 P fK1
[8] = P. falciparum K1 strain, highest tested concentration 10 µM, read-out: IC50 P fK1

Structure (SMILES)	IC50 [1, 7] [µM]	melting point [°C]	CC50 [2] [µM]	other results
O=S(=O)(Nc1nc(C(Cl)(Cl)Cl)nc2ccccc12)c1cccc(F)c1 [8h, 3-Fluoro-N-(2-trichloromethylquinazolin-4-yl)benzenesulfonamide]	> 10	194	106	–
O=S(=O)(Nc1nc(C(Cl)(Cl)Cl)nc2ccccc12)c1ccc(Br)cc1 [8f, 4-Bromo-N-(2-trichloromethylquinazolin-4-yl)benzenesulfonamide]	> 10	> 260	57.4	–
O=[N+]([O-])c1cccc(S(=O)(=O)Nc2nc(C(Cl)(Cl)Cl)nc3ccccc23)c1 [8k, 3-Nitro-N-(2-trichloromethylquinazolin-4-yl)benzenesulfonamide]	> 10	204	120	–
O=S(=O)(Nc1nc(C(Cl)(Cl)Cl)nc2ccccc12)c1ccc(C(F)(F)F)cc1 [8m, N-(2-trichloromethylquinazolin-4-yl)-4-(trifluoromethyl)benzenesulfonamide]	> 10	166	49	–
O=S(=O)(Nc1nc(C(Cl)(Cl)Cl)nc2ccccc12)c1ccccc1C(F)(F)F [8o, N-(2-trichloromethylquinazolin-4-yl)-2-(trifluoromethyl)benzenesulfonamide]	> 10	205	73.8	–
O=S(=O)(Nc1nc(C(Cl)(Cl)Cl)nc2ccccc12)c1ccccc1F [8i, 2-Fluoro-N-(2-trichloromethylquinazolin-4-yl)benzenesulfonamide]	> 10	188	136	–
Fc1ccc(-c2nc(C(Cl)(Cl)Cl)nc3ccccc23)cc1 [C00001]	–	–	–	IC50 [3]: 2.5 µM; CC50 (human HepG2 cell line [4]): > 125 µM; SI (selectivity index) ([5]; SI = CC50/IC50, previously synthesized series (Table 2, entries 1-4)): >50
O=S(=O)(Nc1nc(C(Cl)(Cl)Cl)nc2ccccc12)c1ccc(Cl)cc1 [8e, 4-Chloro-N-(2-trichloromethylquinazolin-4-yl)benzenesulfonamide]	> 10	> 260	71.1	–
C[C@H]1c2cccc(O)c2C(=O)C2=C(O)[C@]3(O)C(=O)C(C(N)=O)=C(O)[C@@H](N(C)C)[C@@H]3[C@@H](O)[C@@H]21 [Doxycycline, reference compound]	6	–	20	IC50 ([5]; Table 2, sulfonamide series and reference drugs): 6 µM
COc1cccc2c1C(=O)c1c(O)c3c(c(O)c1C2=O)C[C@@](O)(C(=O)CO)C[C@@H]3O[C@H]1C[C@H](N)[C@H](O)[C@H](C)O1 [Doxorubicine]	–	–	–	CC50 (in vitro): 0.2 µM
CCN(CC)CCCC(C)Nc1ccnc2cc(Cl)ccc12 (stereo not shown) [Chloroquine, reference compound]	–	–	–	IC50 ([1]; Plasmodium falciparum, K1, read-out: IC50 P fK1): 0.6 µM; IC50 [5]: 0.6 µM
O=S(=O)(Nc1nc(C(Cl)(Cl)Cl)nc2ccccc12)c1cccc(C(F)(F)F)c1 [8n, N-(2-trichloromethylquinazolin-4-yl)-3-(trifluoromethyl)benzenesulfonamide]	> 10	255	75.1	–
O=S(=O)(Nc1nc(C(Cl)(Cl)Cl)nc2ccccc12)c1ccc2ccccc2c1 [8q, N-(2-trichloromethylquinazolin-4-yl)naphtalene-2-sulfonamide]	–	–	–	IC50 [1, 8]: > 10 µM; CC50 (human HepG2 cell line [6]): 48.8 µM
O=S(=O)(Nc1nc(C(Cl)(Cl)Cl)nc2ccccc12)c1ccc(-c2ccccc2)cc1 [8p, N-(2-trichloromethylquinazolin-4-yl)biphenyl-4-sulfonamide]	> 10	210	38.2	–
O=S(=O)(Nc1nc(C(Cl)(Cl)Cl)nc2ccccc12)c1ccccc1 [8a, N-(2-Trichloromethylquinazolin-4-yl)benzenesulfonamide]	> 10	200	82	–
O=S(=O)(Nc1nc(C(Cl)(Cl)Cl)nc2ccccc12)c1ccc(F)cc1 [8g, 4-Fluoro-N-(2-trichloromethylquinazolin-4-yl)benzenesulfonamide]	> 10	> 260	69.5	–
O=S(=O)(Nc1nc(C(Cl)(Cl)Cl)nc2ccccc12)c1cccs1 [8s, N-(2-trichloromethylquinazolin-4-yl)thiophene-2-sulfonamide]	> 10	191	121	–
O=[N+]([O-])c1ccc(S(=O)(=O)Nc2nc(C(Cl)(Cl)Cl)nc3ccccc23)cc1 [8j, 4-Nitro-N-(2-trichloromethylquinazolin-4-yl)benzenesulfonamide]	> 10	250	88.3	–
O=[N+]([O-])c1ccccc1S(=O)(=O)Nc1nc(C(Cl)(Cl)Cl)nc2ccccc12 [8l, 2-Nitro-N-(2-trichloromethylquinazolin-4-yl)benzenesulfonamide]	> 10	> 260	126	–
COc1ccc(S(=O)(=O)Nc2nc(C(Cl)(Cl)Cl)nc3ccccc23)cc1 [8c, 4-Methoxy-N-(2-trichloromethylquinazolin-4-yl)benzenesulfonamide]	> 10	196	102	–
N#Cc1ccc(S(=O)(=O)Nc2nc(C(Cl)(Cl)Cl)nc3ccccc23)cc1 [8d, 4-Cyano-N-(2-trichloromethylquinazolin-4-yl)benzenesulfonamide]	> 10	204	73.8	–
O=S(=O)(Nc1nc(C(Cl)(Cl)Cl)nc2ccccc12)c1cccc2ccccc12 [8r, N-(2-trichloromethylquinazolin-4-yl)naphtalene-1-sulfonamide]	–	–	–	IC50 [1, 8]: > 10 µM; CC50 (human HepG2 cell line [6]): 47.8 µM
Cc1ccc(S(=O)(=O)Nc2nc(C(Cl)(Cl)Cl)nc3ccccc23)cc1 [8b, 4-Methyl-N-(2-trichloromethylquinazolin-4-yl)benzenesulfonamide]	> 10	> 260	68.7	–
CS(=O)(=O)Nc1nc(C(Cl)(Cl)Cl)nc2ccccc12 [8t, N-(2-trichloromethylquinazolin-4-yl)methanesulfonamide]	> 10	186	241	–
